Test results: US8119695B2, “Compounds and methods for treating breast cancer and other diseases” (City of Hope, priority 2003, dated 2012)
Several values for one entry are separate records, joined by “and”; a condition that tells them apart may be missing. Identical values can stand only once. Like-named read-outs stand apart in the source and are kept apart here.

Tests used:
Assay type in all cases: cell-based
ERE-TK-luc = ERE-TK-luc reporter without receptor, E2 100 nM; settings: for Fold Activation: None 1.00
MH100x4 = MH100x4 luciferase reporter without receptor
Source text: (§1) MH100x4 is a luciferase reporter with four copies of a GAL4 […] response element. GAL-L refers to the ligand-binding domain of the indicated receptor fused to the C-terminus of the GAL4 DNA binding domain.

ERRα (GAL-ERRa) = experiment: MH100x4 luciferase reporter with GAL-ERRa; parameters: Reporter Activity: unit not given here
Source text: as §1

ERRβ (GAL-L-ERRb) = target: T1, ERRβ (GAL-L-ERRb) (Homo sapiens, UniProt O95718); experiment: MH100x4 luciferase reporter with GAL-L-ERRb; parameters: Reporter Activity: unit not given here
T1 construct: expressed in transfected cells
T1 sequence (O95718 208-432 limits assumed): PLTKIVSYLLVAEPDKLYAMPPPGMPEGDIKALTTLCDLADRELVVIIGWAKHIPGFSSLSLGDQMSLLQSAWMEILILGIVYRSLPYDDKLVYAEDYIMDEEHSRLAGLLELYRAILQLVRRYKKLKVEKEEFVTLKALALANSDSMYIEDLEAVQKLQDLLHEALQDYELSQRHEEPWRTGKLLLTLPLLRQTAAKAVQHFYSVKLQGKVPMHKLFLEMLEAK
Source text: as §1

ERRγ (GAL-ERRg) = experiment: MH100x4 luciferase reporter with GAL-ERRg; parameters: Reporter Activity: unit not given here
Source text: as §1

ERRs = experiment: repression / antagonism of ERRs; settings: result in words
ERα (ERa) = target: T2, ERα (ERa) (Homo sapiens, UniProt P03372); experiment: ERE-TK-luc reporter with ERa, E2 100 nM; settings: Table 6, None 3.43
T2 construct: expressed in transfected cells
T2 sequence (P03372 1-595): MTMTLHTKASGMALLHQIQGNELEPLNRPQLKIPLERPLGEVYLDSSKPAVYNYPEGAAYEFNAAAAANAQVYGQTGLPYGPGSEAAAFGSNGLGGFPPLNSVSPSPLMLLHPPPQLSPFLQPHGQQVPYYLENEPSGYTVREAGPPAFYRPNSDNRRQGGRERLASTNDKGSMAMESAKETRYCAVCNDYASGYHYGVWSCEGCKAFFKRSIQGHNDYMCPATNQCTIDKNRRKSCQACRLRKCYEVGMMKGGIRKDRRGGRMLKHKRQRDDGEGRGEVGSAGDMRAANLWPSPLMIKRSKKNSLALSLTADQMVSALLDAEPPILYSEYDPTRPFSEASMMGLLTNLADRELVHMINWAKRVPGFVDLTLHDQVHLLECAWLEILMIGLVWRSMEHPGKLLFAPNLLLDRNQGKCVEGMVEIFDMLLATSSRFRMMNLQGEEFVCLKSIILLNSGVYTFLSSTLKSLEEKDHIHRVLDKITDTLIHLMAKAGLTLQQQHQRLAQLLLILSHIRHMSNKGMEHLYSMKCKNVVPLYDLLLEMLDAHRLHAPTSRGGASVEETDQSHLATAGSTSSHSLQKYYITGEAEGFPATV

ERβ (ERb) = target: T3, ERβ (ERb) (Homo sapiens, UniProt Q92731); experiment: ERE-TK-luc reporter with ERb, E2 100 nM; settings: Table 6, None 2.88
T3 construct: expressed in transfected cells

[1] = Table 2, dose 5 (unit not given), None 0.49
[2] = Table 2, dose 5 (unit not given), None 1.00
[3] = Table 2, dose 5 (unit not given), None 8.54
[4] = Table 2, dose 5 (unit not given), None 1.44
[5] = Table 2, dose 5 (unit not given), None 1.25
[6] = Table 3, dose 2.5 (unit not given), None 1
[7] = Table 3, dose 2.5 (unit not given), None 8.18
[8] = Table 3, dose 2.5 (unit not given), None 2.38
[9] = Table 3, dose 2.5 (unit not given), None 2.2
[10] = E2 100 nM + DY 40, head 0 μM (1st)
[11] = E2 100 nM + DY 40, head 0 μM (2nd)

T3 sequence (Q92731 whole entry, species assumed): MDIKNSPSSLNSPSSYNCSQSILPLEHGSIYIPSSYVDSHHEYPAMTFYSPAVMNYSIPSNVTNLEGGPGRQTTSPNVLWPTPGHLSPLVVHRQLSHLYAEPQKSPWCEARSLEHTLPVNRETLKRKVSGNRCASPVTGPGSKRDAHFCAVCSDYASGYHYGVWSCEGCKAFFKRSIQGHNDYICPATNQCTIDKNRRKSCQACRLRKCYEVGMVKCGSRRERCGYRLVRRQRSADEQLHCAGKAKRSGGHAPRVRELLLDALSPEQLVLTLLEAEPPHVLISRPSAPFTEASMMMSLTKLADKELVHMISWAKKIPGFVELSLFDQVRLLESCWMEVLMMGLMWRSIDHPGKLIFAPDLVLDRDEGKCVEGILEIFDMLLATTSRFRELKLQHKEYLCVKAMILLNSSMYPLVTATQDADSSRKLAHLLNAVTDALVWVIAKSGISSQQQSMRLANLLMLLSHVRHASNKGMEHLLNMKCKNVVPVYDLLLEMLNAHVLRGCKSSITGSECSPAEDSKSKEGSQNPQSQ

CC/C(=C(\c1ccc(O)cc1)c1ccc(OCCN(C)C)cc1)c1ccccc1 [4-OH Tamoxifen, (Z)-4-hydroxytamoxifen, reference compound]
Reporter Activity (ERE-TK-luc): 1.2 and 0.98 and 1.58 and 1.48 and 1.61 and 1.34

C=CCOc1ccc(C(CC)=C(CC)c2ccc(O)c(CC=C)c2)cc1 [DY21]
Reporter Activity (MH100x4; [1]): 0.31 | Fold Activation (MH100x4; [2]): 0.63 | Fold Activation (ERRα (GAL-ERRa); [2]): 0.51 | Reporter Activity (ERRα (GAL-ERRa); [3]): 4.34 | Fold Activation (ERRβ (GAL-L-ERRb); [2]): 0.45 | Reporter Activity (ERRβ (GAL-L-ERRb); [4]): 0.65 | Fold Activation (ERRγ (GAL-ERRg); [2]): 0.57 | Reporter Activity (ERRγ (GAL-ERRg); [5]): 0.71

C=CCc1cc(C(CC)=C(CC)c2ccc(O)c(CC=C)c2)ccc1O [DY22]
Reporter Activity (MH100x4; [1]): 0.28 | Fold Activation (MH100x4; [2]): 0.57 | Fold Activation (ERRα (GAL-ERRa); [2]): 0.39 | Reporter Activity (ERRα (GAL-ERRa); [3]): 3.35 | Fold Activation (ERRβ (GAL-L-ERRb); [2]): 0.44 | Reporter Activity (ERRβ (GAL-L-ERRb); [4]): 0.64 | Fold Activation (ERRγ (GAL-ERRg); [2]): 0.50 | Reporter Activity (ERRγ (GAL-ERRg); [5]): 0.63

CCC(=C(c1ccc(O)cc1)c1ccc(O)cc1)c1ccccc1 [DY25, 1,1-Bis(4-hydroxyphenyl)-2-phenylbut-1-ene]
repression of ERRs (ERRs): does not repress ERRs

Oc1ccc(C(=C(CCCl)c2ccccc2)c2ccc(O)cc2)cc1 [DY30]
Reporter Activity (MH100x4; Table 3, dose 2.5 (unit not given), None 0.57): 0.56 | Fold Activation (MH100x4; [6]): 0.98 | Fold Activation (ERRα (GAL-ERRa); [6]): 1.03 | Reporter Activity (ERRα (GAL-ERRa); [7]): 8.46 | Fold Activation (ERRβ (GAL-L-ERRb); [6]): 0.86 | Reporter Activity (ERRβ (GAL-L-ERRb); [8]): 2.04 | Fold Activation (ERRγ (GAL-ERRg); [6]): 0.68 | Reporter Activity (ERRγ (GAL-ERRg); [9]): 1.5 | repression of ERRs (ERRs): does not repress ERRs

CC(C)C(=C(c1ccc(O)cc1)c1ccc(O)cc1)c1ccccc1 [DY34, 1,1-Bis(4-hydroxyphenyl)-2-phenylbut-3-methyl-1-ene]
Fold Activation (ERRα (GAL-ERRa); [6]): 1.01 | Reporter Activity (ERRα (GAL-ERRa); [7]): 8.24 | Fold Activation (ERRβ (GAL-L-ERRb); [6]): 0.48 | Reporter Activity (ERRβ (GAL-L-ERRb); [8]): 1.15 | Fold Activation (ERRγ (GAL-ERRg); [6]): 0.61 | Reporter Activity (ERRγ (GAL-ERRg); [9]): 1.35 | repression of ERRs (ERRs): does not repress ERRs

CCCC(=C(c1ccc(O)cc1)c1ccc(O)cc1)c1ccccc1 [DY37]
repression of ERRs (ERRs): does not repress ERRs

CC(=O)Oc1ccc(/C(=C(/c2ccccc2)C(C)C)c2ccc(OCCN(C)C)cc2)cc1 [DY40, (E,Z)-4-{1-[4-(2-dimethylamino-ethoxy)-phenyl]-3-methyl-2-phenyl-but-1-enyl}-phenyl acetate]
Fold Activation (ERRα (GAL-ERRa); Table 4, DY40 dose head 0 (1st of 3), None 1.23): 1.24 | Reporter Activity (ERRα (GAL-ERRa); Table 4, DY40 dose head 0 (1st of 3), None 34.05): 34.34 | Fold Activation (ERRα (GAL-ERRa); Table 4, DY40 dose head 0 (2nd of 3), None 1.23): 1.17 | Reporter Activity (ERRα (GAL-ERRa); Table 4, DY40 dose head 0 (2nd of 3), None 34.05): 32.4 | Fold Activation (ERRα (GAL-ERRa); Table 4, DY40 dose head 0 (3rd of 3), None 1.23): 1.23 | Reporter Activity (ERRα (GAL-ERRa); Table 4, DY40 dose head 0 (3rd of 3), None 34.05): 34 | Fold Activation (ERRα (GAL-ERRa); Table 4, dose 0.1 (unit not given), None 1/1.23): 1.3 | Reporter Activity (ERRα (GAL-ERRa); Table 4, dose 0.1 (unit not given), None 27.7/34.05): 37 | Fold Activation (ERRα (GAL-ERRa); Table 4, dose 0.3 (unit not given), None 1/1.23): 1.47 | Reporter Activity (ERRα (GAL-ERRa); Table 4, dose 0.3 (unit not given), None 27.7/34.05): 40.8 | Fold Activation (ERRα (GAL-ERRa); Table 4, dose 1 (unit not given), None 1/1.23): 0.98 | Reporter Activity (ERRα (GAL-ERRa); Table 4, dose 1 (unit not given), None 27.7/34.05): 27.3 | Fold Activation (ERRβ (GAL-L-ERRb); Table 4, DY40 dose head 0 (1st of 3), None 1.2): 1.33 | Reporter Activity (ERRβ (GAL-L-ERRb); Table 4, DY40 dose head 0 (1st of 3), None 8.67): 9.61 | Fold Activation (ERRβ (GAL-L-ERRb); Table 4, DY40 dose head 0 (2nd of 3), None 1.2): 0.92 | Reporter Activity (ERRβ (GAL-L-ERRb); Table 4, DY40 dose head 0 (2nd of 3), None 8.67): 6.61 | Fold Activation (ERRβ (GAL-L-ERRb); Table 4, DY40 dose head 0 (3rd of 3), None 1.2): 0.7 | Reporter Activity (ERRβ (GAL-L-ERRb); Table 4, DY40 dose head 0 (3rd of 3), None 8.67): 5.07 | Fold Activation (ERRβ (GAL-L-ERRb); Table 4, dose 0.1 (unit not given), None 1/1.2): 0.2 | Reporter Activity (ERRβ (GAL-L-ERRb); Table 4, dose 0.1 (unit not given), None 7.21/8.67): 1.4 | Fold Activation (ERRβ (GAL-L-ERRb); Table 4, dose 0.3 (unit not given), None 1/1.2): 0.1 | Reporter Activity (ERRβ (GAL-L-ERRb); Table 4, dose 0.3 (unit not given), None 7.21/8.67): 0.73 | Fold Activation (ERRβ (GAL-L-ERRb); Table 4, dose 1 (unit not given), None 1/1.2): 0.08 | Reporter Activity (ERRβ (GAL-L-ERRb); Table 4, dose 1 (unit not given), None 7.21/8.67): 0.59 | potency antagonizing ERRβ relative to 4-hydroxytamoxifen (ERRβ (GAL-L-ERRb); greater than 4-hydroxytamoxifen): about 30 fold | inhibition of the activity of ERRβ (ERRβ (GAL-L-ERRb); result in words): inhibit the activity | inhibition of the activity of ERRγ (ERRγ (GAL-ERRg)): inhibit the activity | potency antagonizing ERRγ relative to 4-hydroxytamoxifen (ERRγ (GAL-ERRg)): about 30 fold | Fold Activation (ERE-TK-luc; Table 6, E2 100 nM + DY 40 0.01 μM): 1.03 | Reporter Activity (ERE-TK-luc; Table 6, E2 100 nM + DY 40 0.01 μM, None 1.44): 1.48 | Fold Activation (ERE-TK-luc; Table 6, E2 100 nM + DY 40 0.03 μM): 0.85 | Reporter Activity (ERE-TK-luc; Table 6, E2 100 nM + DY 40 0.03 μM, None 1.44): 1.22 | Fold Activation (ERE-TK-luc; Table 6, E2 100 nM + DY 40 0.1 μM): 0.69 | Reporter Activity (ERE-TK-luc; Table 6, E2 100 nM + DY 40 0.1 μM, None 1.44): 0.99 | Fold Activation (ERE-TK-luc; Table 6, E2 100 nM + DY 40 0.3 μM): 0.47 | Reporter Activity (ERE-TK-luc; Table 6, E2 100 nM + DY 40 0.3 μM, None 1.44): 0.67 | Fold Activation (ERE-TK-luc; Table 6, E2 100 nM + DY 40, head 0 μM (1st)): 0.90 | Reporter Activity (ERE-TK-luc; Table 6, E2 100 nM + DY 40, head 0 μM (1st), None 1.44): 1.29 | Fold Activation (ERE-TK-luc; Table 6, E2 100 nM + DY 40, head 0 μM (2nd)): 0.81 | Reporter Activity (ERE-TK-luc; Table 6, E2 100 nM + DY 40, head 0 μM (2nd), None 1.44): 1.17 | Reporter Activity (ERα (ERa); E2 100 nM + DY 40 0.01 μM): 5.07 | Reporter Activity (ERα (ERa); E2 100 nM + DY 40 0.03 μM): 2.42 | Reporter Activity (ERα (ERa); E2 100 nM + DY 40 0.1 μM): 1.97 | Reporter Activity (ERα (ERa); E2 100 nM + DY 40 0.3 μM): 1.32 | Reporter Activity (ERα (ERa); [10]): 13.55 | Reporter Activity (ERα (ERa); [11]): 8.57 | Reporter Activity (ERβ (ERb); E2 100 nM + DY 40 0.01 μM): 3.19 | Reporter Activity (ERβ (ERb); E2 100 nM + DY 40 0.03 μM): 2.36 | Reporter Activity (ERβ (ERb); E2 100 nM + DY 40 0.1 μM): 1.58 | Reporter Activity (ERβ (ERb); E2 100 nM + DY 40 0.3 μM): 1.09 | Reporter Activity (ERβ (ERb); [10]): 9.37 | Reporter Activity (ERβ (ERb); [11]): 6.03

C[C@]12CC[C@@H]3c4ccc(O)cc4CC[C@H]3[C@@H]1CC[C@@H]2O [E2, estradiol, reference compound]
Reporter Activity (ERE-TK-luc): 1.13 | Reporter Activity (ERE-TK-luc; Table 6, E2 100 nM alone (no dose head), None 1.44): 1.2
